# Patent publication US10206860B2, “Biguanide preservation of precipitated calcium carbonate” (Colgate-Palmolive Company, priority 2009, dated 2019)
# Experiment: Association of PHMB with PCC after drying (drum dryer)
# Assay type: physicochemical
# Settings: only water is evaporated
# Source text: Although PHMB is water soluble, with the drying process used for PCC (a drum dryer), only water is evaporated; the PHMB remains associated with the PCC.
substance,measurement,value
poly[(hexamethylene)biguanide] [PHMB],Association of PHMB with the PCC after the drying process,remains associated with the PCC after the drying process
